Data on four compounds can be found in PubChem BioAssay AID2060892 (Molecular Pharmacology Branch, DTP, NCI, 2025).

The test system of this test is HOP-62 complex spheroids with HUVEC/MSC, viability. As to the kind of experiment: Anticancer human tumor HOP-62 cell line growth inhibition [RAS].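 As to all read-outs here: spheroids exposed to agents for seven days before readout.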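 As to viability, T/C: 100% = DMSO vehicle control viability.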 The conditions noted are these: for viability, T/C: stronger effect = lower value. Put shortly:
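Agents were tested in combination matrices in half-log decrements from a top concentration at or near clinical Cmax (10 microM if undetermined). Targets were multi-cell spheroids of tumour lines plus HUVEC and MSC stromal cells.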

Setting [1] is: curve of first compound, second compound 0.0316 µM.
[2] abbreviates: curve of first compound, second compound 0.1 µM.
Where [3] appears, read: curve of first compound, second compound 0.316 µM.
Where [4] appears, read: curve of first compound, second compound 1 µM.

Where “and” joins values, the source holds several entries; their conditions need not be identical. Identical values can stand only once. A value given as a limit tells only on which side of the number the result lay.

Consider `CCc1c2c(nc3ccc(O)cc13)-c1cc3c(c(=O)n1C2)COC(=O)[C@]3(O)CC` + C#Cc1c(F)ccc2cc(O)cc(-c3ncc4c(N5CC6CCC(C5)N6)nc(OCC56CCCN5CC(F)C6)nc4c3F)c12, for which the IC50 (as a rule, the concentration that gives 50% inhibition) by setting is: under setting [1], 1.14 nM; under setting [2], 1.31 nM; under setting [3], 1.19 nM; under setting [4], 1.23 nM; (curve of first compound, second compound 3.16 µM) 0.972 nM; (curve of first compound, second compound 10 µM) below 0.949 nM. Further, the viability, T/C (usually the result in the treated group divided by that in the control group, in per cent) runs as follows: (second compound 0.0316 µM, first compound 0.000949 µM) 56.3%; (second compound 0.0316 µM, first compound 0.003 µM) 16.6%; (second compound 0.0316 µM, first compound 0.00949 µM) 11.4%; (second compound 0.0316 µM, first compound 0.03 µM) 5.6%; (second compound 0.0316 µM, first compound 0.0949 µM) 3.66%; (second compound 0.0316 µM, first compound 0.3 µM) 2.78%. In addition, the viability, T/C is, setting by setting: (second compound 0.1 µM, first compound 0.000949 µM) 62.9%; (second compound 0.1 µM, first compound 0.003 µM) 15.6%; (second compound 0.1 µM, first compound 0.00949 µM) 10.1%; (second compound 0.1 µM, first compound 0.03 µM) 4.19%; (second compound 0.1 µM, first compound 0.0949 µM) 5.31%; (second compound 0.1 µM, first compound 0.3 µM) 3.12%. Further, the viability, T/C by setting is: (second compound 0.316 µM, first compound 0.000949 µM) 59.1%; (second compound 0.316 µM, first compound 0.003 µM) 13.8%; (second compound 0.316 µM, first compound 0.00949 µM) 8.76%; (second compound 0.316 µM, first compound 0.03 µM) 5.75%; (second compound 0.316 µM, first compound 0.0949 µM) 3.69%; (second compound 0.316 µM, first compound 0.3 µM) 3.17%. For the same compound, the viability, T/C reads like this: (second compound 1 µM, first compound 0.000949 µM) 60.8%; (second compound 1 µM, first compound 0.003 µM) 12.7%; (second compound 1 µM, first compound 0.00949 µM) 7.48%; (second compound 1 µM, first compound 0.03 µM) 3.47%; (second compound 1 µM, first compound 0.0949 µM) 3.07%; (second compound 1 µM, first compound 0.3 µM) 2.06%. The viability, T/C by setting is: (second compound 3.16 µM, first compound 0.000949 µM) 51.1%; (second compound 3.16 µM, first compound 0.003 µM) 10.9%; (second compound 3.16 µM, first compound 0.00949 µM) 6.45%; (second compound 3.16 µM, first compound 0.03 µM) 3.95%; (second compound 3.16 µM, first compound 0.0949 µM) 2.84%; (second compound 3.16 µM, first compound 0.3 µM) 2.67%. Besides, the viability, T/C reads like this: (second compound 10 µM, first compound 0.000949 µM) 26.9%; (second compound 10 µM, first compound 0.003 µM) 11.7%; (second compound 10 µM, first compound 0.00949 µM) 8.96%; (second compound 10 µM, first compound 0.03 µM) 4.94%; (second compound 10 µM, first compound 0.0949 µM) 5.28%; (second compound 10 µM, first compound 0.3 µM) 3.97%.

Consider `Nc1ccn(C2OC(CO)C(O)C2(F)F)c(=O)n1` (stereo unspecified), for which the viability, T/C (compound 0.00316 µM) was 101% [middle of 4 runs]; the viability, T/C (compound 0.0316 µM) was 13.5% [middle of 4 runs]; the viability, T/C (compound 0.1 µM) was 9.12% [middle of 4 runs]; the viability, T/C (compound 0.316 µM) was 9.08% [middle of 4 runs]; the viability, T/C (compound 1 µM) is 8.33% [middle of 4 runs].

In the case of `C=CC(=O)Nc1cc(Nc2nccc(-c3cn(C)c4ccccc34)n2)c(OC)cc1N(C)CCN(C)C` + C=CC(=O)N1CCN(c2nc(OCC3CCCN3C)nc3c(F)c(-c4nc(N)cc(C)c4C(F)(F)F)c(Cl)cc23)C(C)C1, the IC50 came to 628 nM (curve of first compound, second compound 0.00316 µM); 372 nM (curve of first compound, second compound 0.01 µM); 131 nM under setting [1]; 280 nM under setting [2]; 308 nM under setting [3]; 333 nM under setting [4]. Besides, the viability, T/C is, setting by setting: (second compound 0.00316 µM, first compound 0.00316 µM) 82.4%; (second compound 0.00316 µM, first compound 0.01 µM) 74.9%; (second compound 0.00316 µM, first compound 0.0316 µM) 72.5%; (second compound 0.00316 µM, first compound 0.1 µM) 74.1%; (second compound 0.00316 µM, first compound 0.316 µM) 64.1%; (second compound 0.00316 µM, first compound 1 µM) 40.5%. In addition, the viability, T/C by setting is: (second compound 0.01 µM, first compound 0.00316 µM) 74%; (second compound 0.01 µM, first compound 0.01 µM) 66.6%; (second compound 0.01 µM, first compound 0.0316 µM) 65.7%; (second compound 0.01 µM, first compound 0.1 µM) 66.4%; (second compound 0.01 µM, first compound 0.316 µM) 52.9%; (second compound 0.01 µM, first compound 1 µM) 29.4%. The viability, T/C (second compound 0.0316 µM, first compound 0.00316 µM) is 74.9%; the viability, T/C (second compound 0.0316 µM, first compound 0.01 µM) is 69.9%; the viability, T/C (second compound 0.0316 µM, first compound 0.0316 µM) was 52.6%; the viability, T/C (second compound 0.0316 µM, first compound 0.1 µM) was 51.5%; the viability, T/C (second compound 0.0316 µM, first compound 0.316 µM) is 51.3%; the viability, T/C (second compound 0.0316 µM, first compound 1 µM) was 35.2%. Further, the viability, T/C is, setting by setting: (second compound 0.1 µM, first compound 0.00316 µM) 65.7%; (second compound 0.1 µM, first compound 0.01 µM) 66.1%; (second compound 0.1 µM, first compound 0.0316 µM) 62.7%; (second compound 0.1 µM, first compound 0.1 µM) 56.4%; (second compound 0.1 µM, first compound 0.316 µM) 50.9%; (second compound 0.1 µM, first compound 1 µM) 29.4%. The viability, T/C is, setting by setting: (second compound 0.316 µM, first compound 0.00316 µM) 59.2%; (second compound 0.316 µM, first compound 0.01 µM) 58.1%; (second compound 0.316 µM, first compound 0.0316 µM) 59.2%; (second compound 0.316 µM, first compound 0.1 µM) 57.9%; (second compound 0.316 µM, first compound 0.316 µM) 48.5%; (second compound 0.316 µM, first compound 1 µM) 33.8%. Also, the viability, T/C by setting is: (second compound 1 µM, first compound 0.00316 µM) 63.9%; (second compound 1 µM, first compound 0.01 µM) 53.5%; (second compound 1 µM, first compound 0.0316 µM) 68.9%; (second compound 1 µM, first compound 0.1 µM) 56.9%; (second compound 1 µM, first compound 0.316 µM) 49.8%; (second compound 1 µM, first compound 1 µM) 34.1%.

Turning to `CC(Nc1ccc2c(c1)OCCn1cc(N3C(=O)OCC3C(F)F)nc1-2)C(N)=O` (stereo unspecified), the viability, T/C (compound 10 µM) was 36.1% (2×) and 49.9% and 54.1%. Under “curve of compound”, the IC50 was 2310 nM and > 10000 nM and 1990 nM.
